Test results published in PMC8273887 (Journal of Medicinal Chemistry, 2021).

Columns and labels:
[1] = molecular target: T1, CXCR4 (Homo sapiens, UniProt P61073); assay: Inositol 1 phosphate (IP1) accumulation assay (HTRF) in COS-7 cells transfected with CXCR4; type: cell-based; settings: COS-7 transiently co-transfected with CXCR4-eYFP and chimeric GαΔ6qi4myr; 10^-12 to 10^-5 M, 1 h, 37 °C; HTRF; n ≥ 2
T1 construct: expressed in transfected cells; host or cells: COS-7 (African green monkey), transient co-transfection with GαΔ6qi4myr
T1 sequence (P61073 whole entry): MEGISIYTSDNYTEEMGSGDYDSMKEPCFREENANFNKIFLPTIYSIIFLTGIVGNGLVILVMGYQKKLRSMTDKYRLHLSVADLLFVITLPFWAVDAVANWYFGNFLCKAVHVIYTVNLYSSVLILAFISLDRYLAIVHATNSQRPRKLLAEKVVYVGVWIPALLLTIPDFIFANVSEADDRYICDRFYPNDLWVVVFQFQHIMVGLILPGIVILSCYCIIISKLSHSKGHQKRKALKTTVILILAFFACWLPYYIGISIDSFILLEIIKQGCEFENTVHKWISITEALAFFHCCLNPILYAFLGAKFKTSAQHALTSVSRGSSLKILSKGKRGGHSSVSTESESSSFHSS
Summary of the method: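 COS-7 cells transiently co-transfected with CXCR4-eYFP and chimeric GαΔ6qi4myr were stimulated 1 h at 37 °C in HBSS with 20 mM LiCl; final ligand 10^–12 to 10^–5 M CXCL12, 1 or 10 μM TFF3 forms. IP1 measured by competitive HTRF (665/620 ratio), normalized to CXCL12 response.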

[2] = molecular target: T2, LINGO2 (Homo sapiens, UniProt Q7L985); assay: BRET assay of LINGO2 dimerization in HEK-293 cells; type: cell-based; settings: HEK-293 coexpressing LINGO2-YFP and LINGO2-Rluc; 0.1–10 μM peptide, 20 min incubation; coelenterazine 5 μM; n = 4
T2 construct: expressed in transfected cells; host or cells: HEK-293, transient transfection by the calcium phosphate method
T2 sequence (Q7L985 28-606) 1: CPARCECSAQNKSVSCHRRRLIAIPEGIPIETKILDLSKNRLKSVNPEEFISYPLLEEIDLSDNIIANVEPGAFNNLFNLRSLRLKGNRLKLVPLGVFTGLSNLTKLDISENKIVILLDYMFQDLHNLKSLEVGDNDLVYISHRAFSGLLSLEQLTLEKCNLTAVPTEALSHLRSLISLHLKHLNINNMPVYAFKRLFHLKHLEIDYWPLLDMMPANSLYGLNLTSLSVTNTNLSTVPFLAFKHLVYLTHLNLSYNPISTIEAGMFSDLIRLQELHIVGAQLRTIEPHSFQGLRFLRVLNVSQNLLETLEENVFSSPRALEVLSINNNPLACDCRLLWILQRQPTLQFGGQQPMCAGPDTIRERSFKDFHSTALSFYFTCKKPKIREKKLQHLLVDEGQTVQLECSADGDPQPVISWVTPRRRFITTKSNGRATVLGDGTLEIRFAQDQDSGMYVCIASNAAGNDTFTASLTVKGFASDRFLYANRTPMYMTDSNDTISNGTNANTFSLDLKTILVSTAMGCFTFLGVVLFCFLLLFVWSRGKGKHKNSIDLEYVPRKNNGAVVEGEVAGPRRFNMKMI
T2 sequence (Q7L985 28-606) 2: T2 sequence (Q7L985 28-606) 1
From the text: LINGO2 has also been put forward as a potential TFF3 receptor.[38] We thus evaluated whether TFF3(C^57Acm) or TFF3 homodimer could disturb LINGO2 dimerization via a bioluminescence resonance energy transfer (BRET) assay. This method allows the study of protein interactions using energy transfer between a light-emitting enzyme and a fluorescent acceptor protein.[65] LINGO2 fused with Renilla luciferase (Rluc; protein donor) or yellow fluorescent protein (YFP; protein acceptor) were co-expressed in HEK-293 cells and BRET signal detected after adding the luminescent substrate coelenterazine. […] We then evaluated whether the TFF3 constructs could promote changes of this basal BRET signal by inducing conformational change within the dimers and/or change the dimerization state of LINGO2.
HEK-293 cells were cultured with 10% FBS at 37 °C and 5% CO2 in DMEM for 72–96 h. […] Then, total luminescence was measured by following coelenterazine addition (final concentration 5 μM). BRET signal was measured in four repeats and calculated by determining the emission ratio at 530/480 nm on cells coexpressing donor and acceptor and by subtracting the emission background BRET signal ratio (530/480 nm) of cells expressing only donor protein, then multiplying by 1,000 to obtain results in millBRET units (mBU).

[3] = test system: SH-SY5Y cells; assay: Antiapoptotic assay (etoposide-induced cell death, caspase-3/7 activity); type: cell-based, human; settings: etoposide 10 μM and peptide 10 μM added at the same time, caspase-3/7 activity after 6 h, n ≥ 3 independent experiments
Protocol: (A) Cell death was induced with etoposide (10 μM), and cells were treated with 10 μM of TFF3. Etoposide and TFF3 were added at the same time. Caspase-3/7 activity was measured after 6 h. […] Z-DEVD-FMK (50 μM; caspase-3 inhibitor) was used as the positive control. E: etoposide, E + C3I: etoposide + caspase-3 inhibitor. One-way analysis of variance (ANOVA) followed by Dunnett correction was performed to assess differences between treated cells and etoposide only. *p < 0.05, **p < 0.01.
SH-SY5Y cells were seeded (13–15 × 10^3 cells/well) in 96-well microplates in DMEM with 10% (v/v) fetal calf serum (FCS; Gibco), 2 mM L-glutamine, and 100 units/mL penicillin/streptomycin. The media was replaced with low riboflavin, complete Ham’s F12 medium with 10% (v/v) fetal calf serum, 2 mM L-glutamine, and 100 units/mL penicillin/streptomycin before the live-cell imaging. Cells were treated with the etoposide or the caspase-3 inhibitor or TFF3(C^57Acm) or TFF3 homodimer in the presence of IncuCyte caspase-3/7 green apoptosis reagent. Data were acquired using an IncuCyte ZOOM instrument with standard scan type setting (4 images per well) every 2 h for 48 h.

CC[C@H](C)[C@@H]1NC(=O)[C@H](CCCNC(=N)N)NC(=O)[C@H](CO)NC(=O)[C@H](CC(=O)O)NC(=O)[C@H](Cc2ccccc2)NC(=O)[C@@H]2CSSC[C@H](NC(=O)[C@H](CCC(N)=O)NC(=O)[C@H](CC(N)=O)NC(=O)[C@H](C)NC(=O)[C@H](CO)NC(=O)[C@H](CC(C)C)NC(=O)CNC(=O)[C@@H](NC(=O)[C@H](Cc3ccc(O)cc3)NC(=O)[C@H](CCC(=O)O)NC(=O)[C@@H](N)CCC(=O)O)C(C)C)C(=O)N[C@@H](C)C(=O)N[C@@H](C(C)C)C(=O)N3CCC[C@H]3C(=O)N[C@@H](C)C(=O)N[C@@H](CCCCN)C(=O)N[C@@H](CC(=O)O)C(=O)N[C@@H](CCCNC(=N)N)C(=O)N[C@@H](C(C)C)C(=O)N[C@@H](CC(=O)O)C(=O)N[C@H]3CSSC[C@H](NC(=O)CNC(=O)[C@H](CCCNC(=N)N)NC(=O)[C@H](CC(N)=O)NC(=O)[C@H](CC(N)=O)NC(=O)[C@H](CSSC[C@@H](C(=O)N[C@@H](Cc4ccccc4)C(=O)N[C@@H](CCCCN)C(=O)N4CCC[C@H]4C(=O)N[C@@H](CC(C)C)C(=O)N[C@@H](CCC(N)=O)C(=O)N[C@@H](CCC(=O)O)C(=O)N[C@@H](C)C(=O)N[C@@H](CCC(=O)O)C(=O)N[C@@H](CSCNC(C)=O)C(=O)N[C@H](C(=O)N[C@@H](Cc4ccccc4)C(=O)O)[C@@H](C)O)NC(=O)[C@H](Cc4c[nH]c5ccccc45)NC(=O)[C@@H]4CCCN4C(=O)[C@H](C(C)C)NC(=O)CNC(=O)[C@@H]4CCCN4C1=O)NC(=O)[C@H](CCC(=O)O)NC(=O)[C@H](CCCCN)NC(=O)[C@@H]1CCCN1C(=O)[C@H]([C@@H](C)O)NC(=O)[C@H](C(C)C)NC(=O)[C@H](Cc1c[nH]cn1)NC(=O)[C@@H]1CCCN1C(=O)[C@H](Cc1ccc(O)cc1)NC(=O)CNC3=O)C(=O)N2 [TFF3(C^57Acm)]
concentration up to which CXCR4 was not activated (agonism, IP1 accumulation) [1]: > 10 µM | modification of LINGO2 BRET signal [2]: no statistically significant (p > 0.05) modification of BRET signal | reduction of etoposide-induced cell death (caspase-3/7 active objects) [3]: statistically significant (p < 0.05) reduction in cell death
